Patent USRE47689E1, “Compounds for treating spinal muscular atrophy” (PTC Therapeutics, Inc., priority 2011, dated 2019)

Experiments:
Smn protein = Smn protein assay in cultured cells (SMN HTRF); assay type: cell-based, human; conditions: 48 hours; for maximum fold (Fold) increase of Smn protein: SMA patient fibroblast cells, 7-point concentration data, fold increase relative to vehicle control (SMN HTRF); for EC1.5x (concentration giving 1.5-fold Smn protein increase): SMA Type 1 patient fibroblast cells (GM03813), 7-point concentration curve, SMN HTRF, concentration producing 1.5 times Smn protein vs DMSO vehicle control, read-out: EC1.5x for Smn protein expression
How it was run: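 Lysates in RIPA with protease inhibitors are incubated overnight at room temperature with HTRF anti-SMN antibodies. EC1.5x is derived from fold increase in ΔF over vehicle.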

[1] = system: SMN2 minigene (full length SMN2 minigene mRNA containing SMN2 exon 7); assay: SMN2 minigene mRNA splicing RT-qPCR assay in cultured cells; assay type: cell-based, human; conditions: Homo sapiens, HEK293-H; HEK293H cells stably transfected with SMN2-A minigene; 24 hours; 7-point concentration curve; 1.5-fold relative to vehicle-treated cells; read-out: EC1.5x for production of full length SMN2 mRNA
How it was run: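 HEK293H cells stably carrying the SMN2-A minigene treated 24 h at 37° C with compound (DMSO, 200× stock), then lysed. Multiplex RT-qPCR (SMN primers 0.4 μM final; 40 cycles) measures full-length exon 7-containing minigene mRNA, normalized to GAPDH and to vehicle; EC1.5x derived and binned by stars.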

Structure (SMILES): Cc1cn2cc(-c3cc4ccc(N5CCN6C[C@H](O)C[C@H]6C5)cc4oc3=O)nc2c(C)n1 [Compound 758, 3-(6,8-dimethylimidazo[1,2-a]pyrazin-2-yl)-7-[(7R,8aS)-7-hydroxyhexahydropyrrolo[1,2-a]pyrazin-2(1H)-yl]-2H-chromen-2-one]
- maximum fold (Fold) increase of Smn protein (Smn protein): * (maximum fold increase of ≤1.2)
- EC (1.5-fold) [1]: 0.3 to 1 µM
- melting point: 285 to 287 °C

Structure (SMILES): Cc1cc(C)c2nc(-c3cc4ccc(N5CCCN(C)CC5)cc4oc3=O)cn2c1 [Compound 389, 3-(6,8-dimethylimidazo[1,2-a]pyridin-2-yl)-7-(4-methyl-1,4-diazepan-1-yl)-2H-chromen-2-one]
- maximum fold (Fold) increase of Smn protein (Smn protein): *** (fold increase between >1.35 and ≤1.5)
- EC (1.5-fold) [1]: 0.3 to 1 µM
- melting point: 164 to 169 °C

Structure (SMILES): C[C@@H]1CN(c2ccc3cc(-c4cn5cccnc5n4)c(=O)oc3c2)C[C@H](C)N1 [Compound 107, 7-[(3R,5S)-3,5-dimethylpiperazin-1-yl]-3-(imidazo[1,2-a]pyrimidin-2-yl)-2H-chromen-2-one]
- EC1.5x (concentration giving 1.5-fold Smn protein increase) (Smn protein): 300 to 1000 nM
- maximum fold (Fold) increase of Smn protein (Smn protein): **** (fold increase between >1.5 and ≤1.65)
- EC (1.5-fold) [1]: 0.1 to 0.3 µM
- melting point: 256 to 258 °C

Structure (SMILES): C[C@@H]1CN(c2ccc3cc(-c4cn5cc(Cl)cnc5n4)c(=O)oc3c2)C[C@H](C)N1 [Compound 349, 3-(6-chloroimidazo[1,2-a]pyrimidin-2-yl)-7-[(3R,5S)-3,5-dimethylpiperazin-1-yl]-2H-chromen-2-one]
- maximum fold (Fold) increase of Smn protein (Smn protein): * (maximum fold increase of ≤1.2)
- EC (1.5-fold) [1]: 1 to 3 µM
- melting point: 265 to 271 °C

Structure (SMILES): Cl.O=c1oc2cc(N3CCNCC3)ccc2cc1-c1nc2c(Cl)cccc2o1 [Compound 70, 3-(4-chloro-1,3-benzoxazol-2-yl)-7-(piperazin-1-yl)-2H-chromen-2-one hydrochloride]
- maximum fold (Fold) increase of Smn protein (Smn protein): * (maximum fold increase of ≤1.2)
- EC (1.5-fold) [1]: 0.3 to 1 µM
- melting point: 278 to 282 °C

Structure (SMILES): Cc1cn2cc(-c3cc4ccc(C5CCN(C)CC5)cc4oc3=O)nc2cn1 [Compound 841, 3-(6-methylimidazo[1,2-a]pyrazin-2-yl)-7-(1-methylpiperidin-4-yl)-2H-chromen-2-one]
- EC1.5x (concentration giving 1.5-fold Smn protein increase) (Smn protein): < 300 nM
- maximum fold (Fold) increase of Smn protein (Smn protein): ***** (fold increase >1.65)
- EC (1.5-fold) [1]: < 0.1 µM
- melting point: 266 to 272 °C

Structure (SMILES): Cc1cn2cc(-c3cc4ccc(C5=CC(C)(C)NC(C)(C)C5)cc4oc3=O)nc2c(C)n1 [Compound 949, 3-(6,8-dimethylimidazo[1,2-a]pyrazin-2-yl)-7-(2,2,6,6-tetramethyl-1,2,3,6-tetrahydropyridin-4-yl)-2H-chromen-2-one]
- EC1.5x (concentration giving 1.5-fold Smn protein increase) (Smn protein): < 300 nM
- maximum fold (Fold) increase of Smn protein (Smn protein): ***** (fold increase >1.65)
- EC (1.5-fold) [1]: < 0.1 µM
- melting point: 188 to 190 °C

Structure (SMILES): CN1CCCN(c2ccc3cc(-c4nc5ccccc5s4)c(=O)oc3c2)CC1 [Cpd 145, 3-(1,3-benzothiazol-2-yl)-7-(4-methyl-1,4-diazepan-1-yl)-2H-chromen-2-one]
- maximum fold (Fold) increase of Smn protein (Smn protein): ** (fold increase between >1.2 and ≤1.35)
- EC (1.5-fold) [1]: 0.1 to 0.3 µM
- melting point: 217 to 220 °C

Structure (SMILES): CC(=O)O.CC(=O)O.COc1nc(C)cn2cc(-c3cc4ccc(N5CCN(C)[C@H](C)C5)cc4oc3=O)nc12 [Compound 759, 7-[(3R)-3,4-dimethylpiperazin-1-yl]-3-(8-methoxy-6-methylimidazo[1,2-a]pyrazin-2-yl)-2H-chromen-2-one acetate (1:2)]
- maximum fold (Fold) increase of Smn protein (Smn protein): *** (fold increase between >1.35 and ≤1.5)
- EC (1.5-fold) [1]: < 0.1 µM
- melting point: 227 to 229 °C

Structure (SMILES): Cc1cn2cc(-c3cc4ccc(CCCN5CCOCC5)cc4oc3=O)nc2c(C)n1 [Compound 884, 3-(6,8-dimethylimidazo[1,2-a]pyrazin-2-yl)-7-[3-(morpholin-4-yl)propyl]-2H-chromen-2-one]
- EC1.5x (concentration giving 1.5-fold Smn protein increase) (Smn protein): < 300 nM
- maximum fold (Fold) increase of Smn protein (Smn protein): ***** (fold increase >1.65)
- EC (1.5-fold) [1]: < 0.1 µM
- melting point: 168 to 172 °C

Structure (SMILES): Cc1ccc2nc(-c3cc4ccc(N5CCCNCC5)cc4oc3=O)cn2c1 [Compound 176, 7-(1,4-diazepan-1-yl)-3-(6-methylimidazo[1,2-a]pyridin-2-yl)-2H-chromen-2-one]
- maximum fold (Fold) increase of Smn protein (Smn protein): * (maximum fold increase of ≤1.2)
- EC (1.5-fold) [1]: 1 to 3 µM
- melting point: 218 to 220 °C

Structure (SMILES): CN1CCN(c2ccc3cc(-c4cn5cc(F)cnc5n4)c(=O)oc3c2)CC1 [Cpd 480, 3-(6-fluoroimidazo[1,2-a]pyrimidin-2-yl)-7-(4-methylpiperazin-1-yl)-2H-chromen-2-one]
- maximum fold (Fold) increase of Smn protein (Smn protein): * (maximum fold increase of ≤1.2)
- EC (1.5-fold) [1]: 3 to 30 µM
- melting point: 275 to 280 °C

Structure (SMILES): Cc1cn2cc(-c3cc4ccc(N5CCN6C[C@H](O)C[C@H]6C5)cc4oc3=O)cc2c(C)n1 [Compound 767, 3-(1,3-dimethylpyrrolo[1,2-a]pyrazin-7-yl)-7-[(7R,8aS)-7-hydroxyhexahydropyrrolo[1,2-a]pyrazin-2(1H)-yl]-2H-chromen-2-one]
- EC1.5x (concentration giving 1.5-fold Smn protein increase) (Smn protein): < 300 nM
- maximum fold (Fold) increase of Smn protein (Smn protein): ***** (fold increase >1.65)
- EC (1.5-fold) [1]: < 0.1 µM
- melting point: 185 to 188 °C

Structure (SMILES): CCc1cc(C)cn2cc(-c3cc4ccc(N5C[C@@H](C)N[C@@H](C)C5)cc4oc3=O)nc12 [Compound 341, 7-[(3R,5S)-3,5-dimethylpiperazin-1-yl]-3-(8-ethyl-6-methylimidazo[1,2-a]pyridin-2-yl)-2H-chromen-2-one]
- maximum fold (Fold) increase of Smn protein (Smn protein): * (maximum fold increase of ≤1.2)
- EC (1.5-fold) [1]: 0.3 to 1 µM
- melting point: 203 to 208 °C

Structure (SMILES): O=c1oc2cc(N3CCNCC3)ccc2cc1-c1cc2ccccn2n1 [Cpd 187, 7-(piperazin-1-yl)-3-(pyrazolo[1,5-a]pyridin-2-yl)-2H-chromen-2-one]
- maximum fold (Fold) increase of Smn protein (Smn protein): ** (fold increase between >1.2 and ≤1.35)
- EC (1.5-fold) [1]: 0.3 to 1 µM
- melting point: 236 to 238 °C

Structure (SMILES): C[C@H]1CN(c2ccc3cc(-c4cn5ccc(C(F)(F)F)cc5n4)c(=O)oc3c2)CCN1 [Compound 268, 7-[(3S)-3-methylpiperazin-1-yl]-3-[7-(trifluoromethyl)imidazo[1,2-a]pyridin-2-yl]-2H-chromen-2-one]
- maximum fold (Fold) increase of Smn protein (Smn protein): * (maximum fold increase of ≤1.2)
- EC (1.5-fold) [1]: 0.3 to 1 µM
- melting point: 252 to 260 °C

Structure (SMILES): CCc1cc(-c2cc3ccc(CCCN(C)C)cc3oc2=O)cn2cc(C)nc12 [Compound 910, 7-[3-(dimethylamino)propyl]-3-(8-ethyl-2-methylimidazo[1,2-a]pyridin-6-yl)-2H-chromen-2-one]
- EC1.5x (concentration giving 1.5-fold Smn protein increase) (Smn protein): < 300 nM
- maximum fold (Fold) increase of Smn protein (Smn protein): ***** (fold increase >1.65)
- EC (1.5-fold) [1]: < 0.1 µM
- melting point: 123 to 126 °C

Structure (SMILES): CCN1CC[C@@H](Nc2ccc3cc(-c4cn5cc(C)nc(C)c5n4)c(=O)oc3c2)C1 [Compound 731, 3-(6,8-dimethylimidazo[1,2-a]pyrazin-2-yl)-7-{[(3R)-1-ethylpyrrolidin-3-yl]amino}-2H-chromen-2-one]
- maximum fold (Fold) increase of Smn protein (Smn protein): *** (fold increase between >1.35 and ≤1.5)
- EC (1.5-fold) [1]: < 0.1 µM
- melting point: 209 to 215 °C
